The assay concerns the target T1, Full-length glucokinase (beta cell isoform) (Homo sapiens, UniProt P35557).
T1 construct: Full-length glucokinase (beta cell isoform) was His-tagged at N-terminus; His tag (N); made in house
T1 sequence (P35557 1-465): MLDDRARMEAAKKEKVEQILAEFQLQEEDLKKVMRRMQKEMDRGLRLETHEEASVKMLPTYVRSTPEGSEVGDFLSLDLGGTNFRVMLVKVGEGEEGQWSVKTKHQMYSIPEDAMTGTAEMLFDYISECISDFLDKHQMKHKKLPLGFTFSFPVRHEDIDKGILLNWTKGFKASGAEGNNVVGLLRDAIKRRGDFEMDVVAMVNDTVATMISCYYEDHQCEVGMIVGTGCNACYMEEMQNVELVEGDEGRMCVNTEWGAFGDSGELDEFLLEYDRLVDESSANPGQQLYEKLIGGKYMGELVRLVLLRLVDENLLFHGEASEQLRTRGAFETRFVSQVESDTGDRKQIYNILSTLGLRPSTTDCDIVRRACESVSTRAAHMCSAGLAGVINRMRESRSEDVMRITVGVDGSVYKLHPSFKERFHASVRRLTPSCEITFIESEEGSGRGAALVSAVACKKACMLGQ
Nature of the assay: Glucokinase biochemical assay (PK/LDH-coupled, NADH depletion at 340 nm): % activation, EC50, % max activation. To be noted: 5 mM glucose; for activation at 10 µM: 10 uM compound, % Activation=(Va/Vo−1)×100, read-out: % Activation at 10 uM; for EC50: GK activation, read-out: EC50; for Emax: fitted maximum activation, read-out: % Max Activation. Put shortly:
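Activation expressed as (Va/Vo−1)×100, where initial rates with and without compound come from NADH depletion at 340 nm over 200–900 s. Enzyme is His-tagged human beta-cell GK, full length, run at room temperature in HEPES buffer with 1 mM ATP and 5 mM glucose. DMSO 1%.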

`Cn1ccc(NC(=O)c2cc(OCC(=O)c3ccc(CO)cc3)c3c(c2)OC(C)(C)C3)n1` [Example 97, 4-[2-(4-Hydroxymethyl-phenyl)-2-oxo-ethoxy]-2,2-dimethyl-2,3-dihydro-benzofuran-6-carboxylic acid (1-methyl-1H-pyrazol-3-yl)-amide]: the activation at 10 µM came to 131%, the EC50 (usually the concentration giving half of the maximal effect) was 3.4 µM and the Emax was 123%.

As for `Cn1ccc(NC(=O)c2cc(OCc3nc(-c4ccccn4)no3)c3c(c2)OC(C)(C)C3)n1` [Example 98, 2,2-Dimethyl-4-(3-pyridin-2-yl-[1,2,4]oxadiazol-5-ylmethoxy)-2,3-dihydro-benzofuran-6-carboxylic acid (1-methyl-1H-pyrazol-3-yl)-amide], the activation at 10 µM was 154%, the EC50 amounted to 1.6 µM and the Emax was 165%.

Take `Cc1ncsc1CCOc1cc(C(=O)Nc2ccn(C)n2)cc2c1CC(C)(C)O2` [Example 99, 2,2-Dimethyl-4-[2-(4-methyl-thiazol-5-yl)-ethoxy]-2,3-dihydro-benzofuran-6-carboxylic acid (1-methyl-1H-pyrazol-3-yl)-amide]: the activation at 10 µM was 112%, the EC50 is 4.3 µM and the Emax came to 136%.

On to `CCCc1noc(COc2cc(C(=O)Nc3ccn(C)n3)cc3c2CC(C)(C)O3)n1` [Example 100, 2,2-Dimethyl-4-(3-propyl-[1,2,4]oxadiazol-5-ylmethoxy)-2,3-dihydro-benzofuran-6-carboxylic acid (1-methyl-1H-pyrazol-3-yl)-amide], for which the activation at 10 µM was 171%, the EC50 is 1.6 µM and the Emax came to 156%.

Take `COC(C)CCOc1cc(C(=O)Nc2ccn(C)n2)cc2c1CC(C)(C)O2` (stereo not drawn) [Example 101, 4-(3-Methoxy-butoxy)-2,2-dimethyl-2,3-dihydro-benzofuran-6-carboxylic acid (1-methyl-1H-pyrazol-3-yl)-amide]: the activation at 10 µM amounted to 94.7%, the half-maximal effective concentration (EC50) is 6 µM and the Emax is 125%.

For the molecule `C[C@@H](CO)COc1cc(C(=O)Nc2ccn(C)n2)cc2c1CC(C)(C)O2` [Example 102, 4-((S)-3-Hydroxy-2-methyl-propoxy)-2,2-dimethyl-2,3-dihydro-benzofuran-6-carboxylic acid (1-methyl-1H-pyrazol-3-yl)-amide], the activation at 10 µM worked out at 92.6%, the 50% effective concentration (EC50) came out at 8.8 µM and the Emax came to 137%.

In the case of `Cc1ccc(C(=O)COc2cc(C(=O)Nc3ccn(C)n3)cc3c2CC(C)(C)O3)cn1` [Example 103, 2,2-Dimethyl-4-[2-(6-methyl-pyridin-3-yl)-2-oxo-ethoxy]-2,3-dihydro-benzofuran-6-carboxylic acid (1-methyl-1H-pyrazol-3-yl)-amide], the activation at 10 µM was determined as 78.9%, the EC50 was 4.7 µM and the Emax was 94%.

As to `CCc1nc(O)cc(COc2cc(C(=O)Nc3ccn(C)n3)cc3c2CC(C)(C)O3)n1` [Example 104, 4-(2-Ethyl-6-hydroxy-pyrimidin-4-ylmethoxy)-2,2-dimethyl-2,3-dihydro-benzofuran-6-carboxylic acid (1-methyl-1H-pyrazol-3-yl)-amide], the activation at 10 µM was 149%, the EC50 was 1.8 µM and the Emax was found to be 134%.

Regarding `Cn1cc(C(=O)COc2cc(C(=O)Nc3ccn(C)n3)cc3c2CC(C)(C)O3)cn1` [Example 105, 2,2-Dimethyl-4-[2-(1-methyl-1H-pyrazol-4-yl)-2-oxo-ethoxy]-2,3-dihydro-benzofuran-6-carboxylic acid (1-methyl-1H-pyrazol-3-yl)-amide], the activation at 10 µM came to 70.1%, the EC50 was determined as 9.4 µM and the Emax was 102%.

Take `Cc1ncccc1COc1cc(C(=O)Nc2ccn(C)n2)cc2c1CC(C)(C)O2` [Example 106, 2,2-Dimethyl-4-(2-methyl-pyridin-3-ylmethoxy)-2,3-dihydro-benzofuran-6-carboxylic acid (1-methyl-1H-pyrazol-3-yl)-amide]: the activation at 10 µM came to 143%, the EC50 stood at 2.4 µM and the Emax came out at 141%.

The values are drawn from patent US8119624B2, “Fused phenyl amido heterocyclic compounds” (Pfizer Inc., priority 2006, dated 2012).
